{"source": "paper PMC11397063", "about": "“Subcutaneous Semaglutide during Breastfeeding: Infant Safety Regarding Drug Transfer into Human Milk” (Nutrients, 2024)", "key": {"[1]": {"experiment": "estimation of relative infant dose (RID, RIDF, RIDFP) from milk", "format": "in vivo, human", "details": "milk concentration assumed = LLOQ 5.7 ng/mL", "description": "The maternal weight-adjusted infant dose, the relative infant dose (RID%), is often used to assess infant exposure to drugs through breastfeeding. This parameter is the percentage of an infant dose of drug via a full diet of human milk relative to the maternal dose (mg/kg) over the same period. An RID of […] is often considered a safety threshold in risk assessments. (1) RID (%)=100 × infant daily oral dose per kg from milk/maternal daily dose per kg\nThe fraction’s numerator is computed as the product of the measured drug concentration present in milk times estimated milk intake of 150 mL/kg/day.\nThe RID calculation was adjusted to include parameters for bioavailability and extended dosing intervals, which will improve the interpretation of RID in the setting of subcutaneous semaglutide injection.\nFirst, we will contextualize bioavailability in the RID by including these parameters in the RID calculation (RIDF). […] The oral bioavailability of semaglutide is low but unknown per a medical information request at Novo Nordisk (B. Shah, personal communication, 20 June 2024). As such, oral bioavailability will be overestimated using the available parameter for semaglutide formulated with the permeability enhancer, SNAC (F < 0.01), though SNAC will not be present in this scenario [32]. […]"}, "breastfed infants": {"test_system": "breastfed infants", "details": "in vivo", "quoted_text": "This study utilized data collected from the InfantRisk Human Milk Biorepository (HMB) which has been approved on 22 February 2021 by the institutional ethics committee (A21-4214). The biorepository targets the collection of milk samples and self-related health information for mother and infant dyad via a questionnaire. […] Therefore, we prioritized collecting samples immediately before any dose changes, even if this occurred prior to reaching steady state concentrations, to maximize the informativeness of our analysis. Participants were asked to express milk samples after a minimum of three administrations of the same dose. Milk samples collected from 0, 12, and 24 h post-administration and their corresponding de-identified health questionnaires were released for 8 different individuals from the HMB for this study. If milk samples for multiple doses were provided, samples were only released from the biorepository for the highest dose collected closest to steady-state."}, "[2]": {"details": "cited from earlier work", "description": "First, we will contextualize bioavailability in the RID by including these parameters in the RID calculation (RIDF). […] The oral bioavailability of semaglutide is low but unknown per a medical information request at Novo Nordisk (B. Shah, personal communication, 20 June 2024). As such, oral bioavailability will be overestimated using the available parameter for semaglutide formulated with the permeability enhancer, SNAC (F < 0.01), though SNAC will not be present in this scenario [32]. This overestimate will assist in co ... || However, rather than simply converting the weekly dose to an equivalent daily dose, the estimation of RID can be further extrapolated to estimate steady-state conditions over the full week by considering the plasma concentration-time profile of the […]. […] Overgaard et al. published population pharmacokinetic parameters of semaglutide. According to this publication, the disposition of semaglutide after subcutaneous administration follows a 2-compartment model with first-order absorption from the injection ..."}}, "data": [{"smiles": "CC[C@H](C)[C@H](NC(=O)[C@H](Cc1ccccc1)NC(=O)[C@H](CCC(=O)O)NC(=O)[C@H](CCCCNC(=O)COCCOCCNC(=O)COCCOCCNC(=O)CC[C@H](NC(=O)CCCCCCCCCCCCCCCCC(=O)O)C(=O)O)NC(=O)[C@H](C)NC(=O)[C@H](C)NC(=O)[C@H](CCC(N)=O)NC(=O)CNC(=O)[C@H](CCC(=O)O)NC(=O)[C@H](CC(C)C)NC(=O)[C@H](Cc1ccc(O)cc1)NC(=O)[C@H](CO)NC(=O)[C@H](CO)NC(=O)[C@@H](NC(=O)[C@H](CC(=O)O)NC(=O)[C@H](CO)NC(=O)[C@@H](NC(=O)[C@H](Cc1ccccc1)NC(=O)[C@@H](NC(=O)CNC(=O)[C@H](CCC(=O)O)NC(=O)C(C)(C)NC(=O)[C@@H](N)Cc1cnc[nH]1)[C@@H](C)O)[C@@H](C)O)C(C)C)C(=O)N[C@@H](C)C(=O)N[C@@H](Cc1c[nH]c2ccccc12)C(=O)N[C@@H](CC(C)C)C(=O)N[C@H](C(=O)N[C@@H](CCCNC(=N)N)C(=O)NCC(=O)N[C@@H](CCCNC(=N)N)C(=O)NCC(=O)O)C(C)C", "note": "[semaglutide]", "values": [{"measurement": "RIDF (%), maximum possible", "setting": "[1]; Equation (2), mean maternal weight 93 kg, mean 0.56 mg/week SC, F(oral) 0.01, F(S.C.) 89%, weekly dose/7", "result": "<1.12", "unit": "%"}, {"measurement": "maximum dose to the infant possible without detecting semaglutide in milk", "setting": "[1]; infant milk intake 150 mL/kg/day", "result": 855, "unit": "ng/kg/day"}, {"measurement": "infant growth, all infants", "setting": "breastfed infants", "result": "unremarkable"}, {"measurement": "infant milestones, all infants", "setting": "breastfed infants", "result": "meeting or surpassing expected milestones"}, {"measurement": "oral bioavailability (F)", "setting": "[2]; semaglutide formulated with the permeability enhancer SNAC, used as overestimate", "result": "< 0.01"}, {"measurement": "subcutaneous bioavailability", "setting": "[2]; subcutaneous", "result": 89, "unit": "%"}]}]}
